≈ marks a conversion by molar mass, not a printed value. Calls of active or inactive are those of the source. The rule behind the calls is not given here.
Assays:
[1] = system: Leishmania donovani; test: Anti-leishmanial activity against promastigote stage of Leishmania donovani MHOM/IN/Dd8 harboring luciferase gene at 12.5 ug/ml after 72 hrs by luminescence assay relative to control; type: functional; conditions: for inhibition at 12.5 µg/mL: MHOM/IN/Dd8, 72 h
[2] = system: Leishmania donovani; test: Anti-leishmanial activity against intracellular amastigote stage of Leishmania donovani harboring luciferase gene infected in mouse J774A1 cells at 12.5 ug/ml after 72 hrs by luminescence assay relative to control; type: functional; conditions: for inhibition at 12.5 µg/mL: J774.A1, 72 h
[3] = Cytotoxicity against mouse J774A1 cells after 72 hrs by MTT assay; type: cell-based, J774.A1

CC(=O)SC(SC(C)=O)c1cn(C)c2ccccc12
inhibition at 12.5 µg/mL [1]: 31%

CC(=O)SC(SC(C)=O)c1cn(CCCCOc2ccc(C#N)cc2)c2ccccc12
inhibition at 12.5 µg/mL [1]: 90.9%
inhibition at 12.5 µg/mL [2]: 97.8%
CC50 at 72 h [3]: > 100 µg/mL

CC(=O)SC(SC(C)=O)c1cn(CCCCCN2CCN(c3ccccc3)CC2)c2ccccc12
inhibition at 12.5 µg/mL [1]: 60.1%
inhibition at 12.5 µg/mL [2]: 86.8%
CC50 at 72 h [3]: 13.8 µg/mL (≈ 27.1 µM)

N#Cc1ccc(OCCCCCn2cc(C=O)c3ccccc32)cc1
inhibition [1]: inactive
inhibition [2]: inactive

CCCCn1cc(C(SC(C)=O)SC(C)=O)c2ccccc21
inhibition at 12.5 µg/mL [1]: 74%

CC(=O)SC(SC(C)=O)c1cn(CCCCCCOc2ccc(C#N)cc2)c2ccccc12
inhibition at 12.5 µg/mL [1]: 91.6%
inhibition at 12.5 µg/mL [2]: 40.2%
CC50 at 72 h [3]: > 100 µg/mL

CC(=O)SC(SC(C)=O)c1cn(CCCCCOc2ccc(C#N)cc2)c2ccccc12
inhibition at 12.5 µg/mL [1]: 96%
inhibition at 12.5 µg/mL [2]: 99.8%
CC50 at 72 h [3]: > 100 µg/mL
